Reference: patent US11529397B2, “Method of treating mucopolysaccharidosis type IVA” (Saint Louis University, priority 2018, dated 2022)

B1: N-acetylgalactosamine-6-sulfatase (protein, listed as Homo sapiens)
chain: APQPPNILLLLMDDMGWGDLGVYGEPSRETPNLDRMAAEGLLFPNFYSANPLCSPSRAALLTGRLPIRNGFYTTNAHARNAYTPQEIVGGIPDSEQLLPELLKKAGYVSKIVGKWHLGHRPQFHPLKHGFDEWFGSPNCHFGPYDNKARPNIPVYRDWEMVGRYYEEFPINLKTGEANLTQIYLQEALDFIKRQARHHPFFLYWAVDATHAPVYASKPFLGTSQRGRYGDAVREIDDSIGKILELLQDLHVADNTFVFFTSDNGAALISAPEQGGSNGPFLCGKQTTFEGGMREPALAWWPGHVTAGQVSHQLGSIMDLFTTSLALAGLTPPSDRAIDGLNLLPTLLQGRLMDRPIFYYRGDTLMAATLGQHKAHFWTWTNSWENFRQGIDFCPGQNVSGVTTHNLEDHTKLPLIFHLGRDPGERFPLSFASAEYQEALSRITSVVQQHQEALVPAQPQLNVCNWAVMNWAPPGCEKLGKCLTPPESIPKKCLWSH
notes: recombinant human GALNS produced in CHO cells, used for ERT and oral tolerance

Experiments:
splenocytes [1] = assay: Splenocyte proliferation after in vitro stimulation with peptides or GALNS (Examples 2, 4); assay type: cell-based, mouse; settings: for proliferation of splenocytes relative to age of the animal and length of treatment: MKC mice, weeks of infusion
Experimental: Mice (MKC) genetically engineered not to express GALNS were used in these examples. […] 200 μl of the emulsion were administered as a subcutaneous injection. […] Control mice (n=2) were immunized with PBS emulsified in CFA and IFA respectively (Chung et al. (2005) J. Leukoc Biol. 77(6):906-13)). […] A control group (n=5) received PBS (Tomatsu et al. (2008) Hum Mol Genet. 15; 17(6):815-24). […]
Ten days after the last immunization or the last infusion, the mice were euthanized and the spleen was aseptically removed. […] The suspension was centrifuged at 1000 rpm […]. The red blood cells were lysed using a hypotonic lysis buffer (Sigma® R7757). […] Cells were pulsed with 1 JpCi of [3H]thymidine for the last 18 h of incubation. [3H]thymidine incorporation was measured by […] (Trilux Microbeta Counter). The Stimulation Index (SI) was calculated as the mean value of the three wells for each condition divided by the mean value of the unstimulated cells (Mirano-Bascos (2010) J Virol. 84(7):3303-11).

splenocytes [2] = assay: Screening of peptides by splenocytes proliferation, retest in MKC mice (Examples 5-6); assay type: cell-based, mouse; settings: MKC mice, 16, 22 and 24 infusions; with higher number of infusions
Experimental: of body weight through the tail vein. A control group received PBS. […] The suspension was centrifuged at 1,000 rpm during 10 minutes. […] The specificity of cellular response against the peptides or the complete enzyme in the in vitro stimulation was determined by splenocyte proliferation or cytokine secretion in ERT treated mice or PBS injected control mice. […] 3H-Thymidine incorporation was measured by β-Scintillation counter (Trilux Microbeta Counter). Proliferation data are expressed as counts per minute (cpm) values (FIG. 5). (Mirano-Bascos et al. (2010) J Virol. 84(7): p. 3303-11).

splenocytes [3] = assay: Secreted cytokines of splenocytes in Morquio A mouse models and WT mice treated by ERT (Examples 10-13); assay type: cell-based; settings: for IL-4 secretion / IL-5 secretion / IL-13 secretion: MTol mice
Experimental: Morquio A mouse models: a). […] 14(22): p. 3321-35).c). Missense mutation mice (Galnstm (C76S) SLU C2) (Tomatsu et al. (2007) Mol Genet Metab., 91(3): p. 251-8), and wild-type C57BL6 mice were treated by ERT. […] A control group received PBS.
The suspension was centrifuged at 1,000 rpm during 10 minutes.
Cytokines were determined in the cell culture supernatants. […] Cells were centrifuged at 1000 rpm during 10 min. Secreted cytokines (IL-4, IL-5, IL-13, and IFN-γ) in the collected supernatants were detected by a bead immunoassay kit which allow the measurement of multiple proteins simultaneously (LUMINEX xMAP Technology, using a Millipore Milliplex™ kit) according to manufacturer's instructions.

MKC mice [4] = assay: Oral tolerance induction: secreted cytokines after GALNS in vitro stimulation (Examples 15-18); assay type: in vivo, mouse; settings: for IFN-γ secretion after oral treatment: oral 50, 100 or 500 μg, GALNS in vitro stimulation
Text: (§1) Control groups (7 and 8) received PBS alone.
Secreted cytokines (IL-4, IL-5, IL-10, IL-13 and IFN-γ) in the collected supernatants were detected by a bead immunoassay kit which allow the measurement of multiple proteins simultaneously (LUMINEX xMAP Technology, using a Millipore Milliplex™) kit according manufacturer's instructions (FIG. 6).

MKC mice [5] = assay: Oral tolerance induction: GALNS specific IgG plasma levels by ELISA (Example 19); assay type: in vivo, mouse
Experimental: as §1
An indirect ELISA technique was used to detect plasma IgG and IgE antibodies against GALNS in treated and untreated mice. […] The plates were blocked with 3% Casein in PBS for 1 h at room temperature in a wet chamber. After two washes, first with TTBS (10 mMTris, 150 mM NaCl, 0.05% Tween20, pH 7.5), and then with TBS (10 mM Tris, 150 mM NaCl, 0.05%, pH 7.5), […] of mice plasma samples diluted 1:500, for IgE and 1:1,000 for IgG, in TTBS were added to the plate and incubated 2 h at 37° C. in a wet chamber. Four washes with TTBS were performed. 100 μl of anti-mouse IgE-HRP (Thermo Scientific) 1:1,000 in TTBS or IgG-Peroxidase (Sigma) 1:5,000 dilution in TTBS were applied. After three washes with TTBS, followed by one wash with TBS, the experiment was developed with the substrate TMB (3,3′,5,5′Tetramethylbenzidine). The enzymatic reaction was stopped with IN HCl solution and the absorbance was measured at 450 nm in a Multiskan® EL800 (Bio-Tek Instruments). Plasma concentrations of IgG antibodies anti-GALNS were derived by extrapolation of the absorbance values from a calibration curve using a mAb anti-GALNS.

MKC mice [6] = assay: Regulatory markers (CTLA-4, TGF-β) mRNA in Peyer patches after induction of tolerance (Example 21); assay type: in vivo, mouse; settings: real-time PCR, oral 50, 100 or 500 μg
Text: FIG. 25. Up-regulation of TGF-β expression after induction of tolerance in mice PP. […] Control groups were fed with PBS. […] The fold change in expression was related to the values of non-tolerized group. GAPDH was using as a housekeeping gene for the data normalization.
FIG. 26. Up-regulation of CTLA-4 expression after induction of tolerance in mice PP. […] Control groups were fed with PBS. […] The fold change in expression was related to the values of non-tolerized group. GAPDH was using as a housekeeping gene for the data normalization.
Regulatory Markers Evaluation in Peyer Patches (PP) after Induction of Tolerance. […] Most of the mice presented up-regulation of these regulatory molecules when compare with the non-tolerized group.

MKC mice [7] = assay: Oral tolerance protocol followed by ERT, overall outcome; assay type: in vivo, mouse; settings: oral administration prior to ERT
Text: as §1

[8] = oral 50 μg, one week after the last infusion

| Molecule | proliferation of splenocytes relative to age of the animal and length of treatment (splenocytes [1]) | splenocyte proliferation response (splenocytes [1]; splenocytes of MKC mice treated by ERT with GALNS, in vitro peptide stimulation) | relationship between number of weekly i.v. infusions and cpm values of splenocytes proliferation (splenocytes [2]) | IFN-γ secretion, MKC vs MTol mice treated by ERT, p or significance (splenocytes [3]) | IL-4 secretion (splenocytes [3]) | IL-5 secretion (splenocytes [3]) | IL-13 secretion (splenocytes [3]) | specific cellular response after splenocytes in vitro stimulation (splenocytes [3]; mice treated by ERT, compared with GALNS stimulation) | IFN-γ secretion after oral treatment (MKC mice [4]) | reduction in GALNS specific IgG plasma levels vs non-tolerized mice, p or words (MKC mice [5]; [8]) | reduction in GALNS specific IgG plasma levels vs non-tolerized mice, p or words (MKC mice [5]; oral 100 μg) | reduction in GALNS specific IgG plasma levels vs non-tolerized mice, p or words (MKC mice [5]; oral 500 μg) | CTLA-4 expression in Peyer patches vs non-tolerized group (MKC mice [6]) | TGF-β expression in Peyer patches vs non-tolerized group (MKC mice [6]) | inducing oral tolerance to GALNS (MKC mice [7]) | IL-10 secretion after oral treatment (MKC mice [4]; mice treated orally) |
| --- | --- | --- | --- | --- | --- | --- | --- | --- | --- | --- | --- | --- | --- | --- | --- | --- |
| QQHQEALVPAQPQLNVTNWA (listed as Homo sapiens) [Peptide I10] | highest response at 16 weeks | strong response | lower levels of proliferation | 0.044 | did not present secretion of IL-4 | did not present secretion of IL-5 | did not show any secretion of IL-13 | very similar to the one observed by in vitro stimulation with GALNS | down-regulated | 0.0086 | same levels or in some cases higher levels | same levels or in some cases higher levels | predominantly up-regulated | observed in both groups | effective | – |
| B1 | highest response at 16 weeks | – | lower levels of proliferation | not statistically significant | did not present secretion of IL-4 | did not present secretion of IL-5 | did not show any secretion of IL-13 | – | did not show any modulation | same levels or in some cases higher levels | 0.033 | – | – | observed in both groups | effective | down-regulation of IL-10 |
